Assay [1] relates to Phosphorylation of ERK1/2 in AsPC-1 cells. Nature of the assay: Phospho-ERK1/2 MSD Assay. In kind it is cell-based. As to conditions: Homo sapiens, ASPC1, 2 h, read-out: 2 h p-ERK (AsPC-1 cells), IC50 (μM), AsPC-1 cells, 2 h compound treatment. On the procedure:
AsPC-1 (ATCC® CRL-1682TM) cells were cultured in RPMI 1640 Medium (ThermoFisher Scientific 11875093) containing 10% fetal bovine serum (ThermoFisher Scientific 16000044) and 1× penicillin-streptomycin-glutamine (ThermoFisher Scientific 10378016). Sixteen hours prior to compound treatment, AsPC-1 cells were seeded in 96-well cell culture plates at a density of 25,000 cells/well and incubated at 37° C., 5% CO2. A compound dose-response titration was diluted in growth media, added to appropriate wells of a cell culture plate, and then incubated at 37° C., 5% CO2 for 2 hours. Following compound treatment, cells were washed with ice-cold Dulbecco's phosphate-buffered saline, no Ca^2+ or Mg^2+ (ThermoFisher Scientific 14190144), and then lysed in RIPA buffer (50 mM Tris-HCl pH 7.5, 1% Igepal, 0.5% sodium deoxycholate, 150 mM NaCl, and 0.5% sodium dodecyl sulfate) containing protease inhibitors (Roche 4693132001) and phosphatase inhibitors (Roche 4906837001). Phosphorylation of ERK1/2 in compound-treated lysates was assayed using Phospho-ERK1/2 Whole Cell Lysate kits (Meso Scale Discovery K151DWD) according to the manufacturer's protocol. Assay plates were read on a Meso Scale Discovery Sector Imager 6000, and data were analyzed using a 4-parameter logistic model to calculate IC50 values.

For assay [2], the target named is His-tagged KRAS G12D protein (Homo sapiens (Human), UniProt P01116, G12D). Nature of the assay: KRAS G12D TR-FRET Assay. In kind it is binding. To be noted: biotinylated KRPep-2d, 10 μM GDP. As for the experimental part: Compounds of interest were prepared in a dose-response titration in DMSO, and 80 nL were added via Labcyte Echo to each well of a 384-well plate (Perkin Elmer 6008280). The His-tagged KRAS G12D protein (Amgen) was diluted to 20 nM in Assay Buffer (20 mM HEPES, pH 7.4, 10 mM MgCl2, 50 mM NaCl, 0.1% BSA, 0.01% Tween-20, 10 μM GDP) and 2 μL was added to the appropriate wells of the 384-well plate. The plate was incubated for 30 minutes at rt. Biotinylated KRPep-2d substrate (Amgen) was diluted to […] in Assay Buffer and 2 AL was added to all wells and incubated for 1 hour at room temperature. Detection Reagent (0.4 nM LANCE Eu-W1024 Anti-6×His (Perkin Elmer AD0401), 5 nM streptavidin-d2 (Cisbio 610SADLA)) was prepared in Assay Buffer, then 4 AL was added to the plate and incubated for 1 h at rt. Plates were read using PerkinElmer En Vision (ex: 320 nm, em1: 665 nm, em2: 615 nm) and em1/em2 data was used to generate curve fits using a 4-parameter logistic model to calculate IC50 values.

For assay [3], the target named is GDP-bound KRAS protein (aa 1-169), G12D and C118A; SOS-mediated nucleotide exchange (Homo sapiens (Human), UniProt P01116, C118A/G12D). The assay is described as follows: KRAS G12D Coupled Nucleotide Exchange Assay. In kind it is biochemical. As to conditions: 2 h compound pre-incubation, GTP, cRAF AlphaScreen. On the procedure: Purified GDP-bound KRAS protein (aa 1-169), containing both G12D and C118A amino acid substitutions and an N-terminal His-tag, was pre-incubated in assay buffer (25 mM HEPES pH 7.4, 10 mM MgCl2, and 0.01% Triton X-100) with a compound dose-response titration for 2 h. Following compound pre-incubation, purified SOS protein (aa 564-1049) and GTP (Roche 10106399001) were added to the assay wells and incubated for an additional 30 min. […] The assay plates were then read on a PerkinElmer En Vision Multilabel Reader, using AlphaScreen® technology, and data were analyzed using a 4-parameter logistic model to calculate IC50 values.

pIC50: −log10 of the molar value.

Sequence of His-tagged KRAS G12D protein (P01116-2 other isoform, or with tags, fused parts or gaps G12D): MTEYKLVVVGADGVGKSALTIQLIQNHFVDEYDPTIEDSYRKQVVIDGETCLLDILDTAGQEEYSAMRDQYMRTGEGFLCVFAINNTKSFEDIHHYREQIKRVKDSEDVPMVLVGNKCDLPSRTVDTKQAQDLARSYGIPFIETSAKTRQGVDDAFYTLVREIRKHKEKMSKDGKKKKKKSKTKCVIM
Sequence of GDP-bound KRAS protein (aa 1-169), G12D and C118A; SOS-mediated nucleotide exchange (P01116 other isoform, or with tags, fused parts or gaps G12D/C118A): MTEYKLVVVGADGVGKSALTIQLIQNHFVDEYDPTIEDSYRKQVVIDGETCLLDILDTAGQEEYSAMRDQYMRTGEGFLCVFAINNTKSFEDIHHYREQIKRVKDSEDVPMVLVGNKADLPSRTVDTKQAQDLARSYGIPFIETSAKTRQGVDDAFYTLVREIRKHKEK

For `N#Cc1c(N)sc2c(F)ccc(-c3c(Cl)cc4c(N5CCOCC(=O)C5)nc(OC[C@@]56CCCN5C[C@H](F)C6)nc4c3F)c12` [Example 6, 2-Amino-4-(6-chloro-8-fluoro-2-(((2R,7aS)-2-fluorotetrahydro-1H-pyrrolizin-7a(5H)-yl)methoxy)-4-(6-oxo-1,4-oxazepan-4-yl)quinazolin-7-yl)-7-fluorobenzo[b] thiophene-3-carbonitrile], in assay [1], the IC50 is 0.143 µM.
As to `N#Cc1c(N)sc2c(F)ccc(-c3c(Cl)cc4c(N5CCCC[C@@H](C#N)C5)nc(OC[C@@]56CCCN5C[C@H](F)C6)nc4c3F)c12` [Example 68, (3R)-1-(7-(2-amino-3-cyano-7-fluorobenzo[b]thiophen-4-yl)-6-chloro-8-fluoro-2-(((2R,7aS)-2-fluorotetrahydro-1H-pyrrolizin-7a(5H)-yl)methoxy)quinazolin-4-yl)azepane-3-carbonitrile], the negative logarithm of the IC50 (pIC50) is 6.84 in assay [2] and 7.04 in assay [3].
As to `N#Cc1c(N)sc2c(F)ccc(-c3c(Cl)cc4c(N5CCCCC(=O)C5)nc(OC[C@@]56CCCN5C[C@H](F)C6)nc4c3F)c12` [Example 8, 2-Amino-4-(6-chloro-8-fluoro-2-(((2R,7aS)-2-fluorotetrahydro-1H-pyrrolizin-7a(5H)-yl)methoxy)-4-(3-oxoazepan-1-yl)quinazolin-7-yl)-7-fluorobenzo[b] thiophene-3-carbonitrile], the IC50 in assay [1] turned out to be 0.015 µM.
Turning to `N#Cc1c(N)sc2c(F)ccc(-c3c(Cl)cc4c(N5CCCC6(CCS6(=O)=O)C5)nc(OC[C@@]56CCCN5C[C@H](F)C6)nc4c3F)c12` (stereo partly drawn) [Example 10, 2-Amino-4-(6-chloro-4-(1,1-dioxido-1-thia-6-azaspiro[3.5]nonan-6-yl)-8-fluoro-2-(((2R,7aS)-2-fluorotetrahydro-1H-pyrrolizin-7a(5H)-yl)methoxy)quinazolin-7-yl)-7-fluorobenzo[b] thiophone-3-carbonitrile], the figures for the pIC50 in assay [2] and in assay [3] were 7.36 and 7.44, respectively.
On to `N#Cc1c(N)sc2c(F)ccc(-c3c(Cl)cc4c(N5CCCC[C@@H](O)C5)nc(OC[C@@]56CCCN5C[C@H](F)C6)nc4c3F)c12` [Example 4, 2-Amino-4-(6-chloro-8-fluoro-2-(((2R,7aS)-2-fluorotetrahydro-1H-pyrrolizin-7a(5H)-yl)methoxy)-4-((R)-3-hydroxyazepan-1-yl)quinazolin-7-yl)-7-fluorobenzo[b] thiophene-3-carbonitrile], for which the IC50 in assay [1] was found to be 0.041 µM.
As to `N#Cc1c(N)sc2c(F)ccc(-c3c(Cl)cc4c(N5CCCC6(CNC(=O)O6)C5)nc(OC[C@@]56CCCN5C[C@H](F)C6)nc4c3F)c12` (stereo partly drawn) [Example 17, 2-Amino-4-(6-chloro-8-fluoro-2-(((2R,7aS)-2-fluorotetrahydro-1H-pyrrolizin-7a(5H)-yl)methoxy)-4-(2-oxo-1-oxa-3,7-diazaspiro[4.5]decan-7-yl)quinazolin-7-yl)-7-fluorobenzo[b] thiophene-3-carbonitrile], in assay [1], the IC50 was 0.768 µM.
Consider `C[C@@]1(O)CCCN(c2nc(OC[C@@]34CCCN3C[C@H](F)C4)nc3c(F)c(-c4ccc(F)c5sc(N)c(C#N)c45)ncc23)C1` [Example 56, 2-Amino-7-fluoro-4-(8-fluoro-2-(((2R,7aS)-2-fluorotetrahydro-1H-pyrrolizin-7a(5H)-yl)methoxy)-4-((R)-3-hydroxy-3-methylpiperidin-1-yl)pyrido[4,3-d]pyrimidin-7-yl)benzo[b] thiophene-3-carbonitrile], for which the negative-log IC50 (pIC50) in assay [2] was 7.77; in assay [3] it was 7.52.
Regarding `N#Cc1c(N)sc2c(F)ccc(-c3c(Cl)cc4c(N5CCC=CC(O)C5)nc(OC[C@@]56CCCN5C[C@H](F)C6)nc4c3F)c12` (stereo partly drawn) [Example 29, 2-Amino-4-(6-chloro-8-fluoro-2-(((2R,7aS)-2-fluorotetrahydro-1H-pyrrolizin-7a(5H)-yl)methoxy)-4-(3-hydroxy-2,3,6,7-tetrahydro-1H-azepin-1-yl)quinazolin-7-yl)-7-fluorobenzo[b] thiophene-3-carbonitrile], the IC50 in assay [1] was 0.081 µM.
In assay [2], `N#Cc1c(N)sc2c(F)ccc(-c3c(Cl)cc4c(N5CCCOCCC5)nc(OC[C@@]56CCCN5C[C@H](F)C6)nc4c3F)c12` (single isomer, unassigned) [Example 19] showed a pIC50 of 6.79. Besides, the IC50 in assay [3] turned out to be 94 nM.
For `CC(C)(O)COc1nc(N2CCOC[C@@](C)(O)C2)c2cc(Cl)c(-c3ccc(F)c4sc(N)c(C#N)c34)c(F)c2n1` (single isomer, unassigned) [Example 67] the same measures were 7.21 and 34 nM.
As for `N#Cc1c(N)sc2c(F)ccc(-c3c(Cl)cc4c(N5CC6CC(O)C(C6)C5)nc(OC[C@@]56CCCN5C[C@H](F)C6)nc4c3F)c12` (mixture of isomers) [Example 7, 2-Amino-4-(6-chloro-8-fluoro-2-(((2R,7aS)-2-fluorotetrahydro-1H-pyrrolizin-7a(5H)-yl)methoxy)-4-(rac-(1R,5R,6R)-6-hydroxy-3-azabicyclo[3.2.1]octan-3-yl)quinazolin-7-yl)-7-fluorobenzo[6] thiophene-3-carbonitrile], the IC50 in assay [1] is 0.264 µM.
As for `N#Cc1c(N)sc2c(F)ccc(-c3c(Cl)cc4c(N5CCCC(C#N)CC5)nc(OC[C@@]56CCCN5C[C@H](F)C6)nc4c3F)c12` (stereo partly drawn) [Example 3, 1-(7-(2-Amino-3-cyano-7-fluorobenzo[b]thiophen-4-yl)-6-chloro-8-fluoro-2-(((2R,7a.S)-2-fluorotetrahydro-1H-pyrrolizin-7a(5H)-yl)methoxy)quina-zolin-4-yl)azepane-4-carbonitrile], the IC50 in assay [1] worked out at 0.105 µM.
Consider `CC1(O)COCCN(c2nc(OC[C@@]34CCCN3C[C@H](F)C4)nc3c(F)c(-c4ccc(F)c5sc(N)c(C#N)c45)c(Cl)cc23)C1` (single isomer, unassigned) [Example 23], for which the negative-log IC50 (pIC50) in assay [2] was 7.36. Besides, the IC50 in assay [3] came to 42 nM.
For the compound `N#Cc1c(N)sc2c(F)ccc(-c3c(Cl)cc4c(N5CCC6(CCCS6(=O)=O)C5)nc(OC[C@@]56CCCN5C[C@H](F)C6)nc4c3F)c12` (stereo partly drawn) [Example 9, 2-Amino-4-(6-chloro-4-(1,1-dioxido-1-thia-7-azaspiro[4.4]nonan-7-yl)-8-fluoro-2-(((2R,7aS)-2-fluorotetrahydro-1H-pyrrolizin-7a(5H)-yl)methoxy)quinazolin-7-yl)-7-fluorobenzo[b] thiophene-3-carbonitrile], the pIC50 is 7.22 in assay [2] and 7.39 in assay [3].
The like results for `N#Cc1c(N)sc2c(F)ccc(-c3c(Cl)cc4c(N5CCCC6(CCOC6)C5)nc(OC[C@@]56CCCN5C[C@H](F)C6)nc4c3F)c12` (stereo partly drawn) [Example 2, 2-Amino-4-(6-chloro-8-fluoro-2-(((2R,7aS)-2-fluorotetrahydro-1H-pyrolizin-7a(5H)-yl)methoxy)-4-(2-oxa-7-azaspiro[4.5]decan-7-yl)quinazolin-7-yl)-7-fluorobenzo[b] thiophene-3-carbonitrile] were, in that order, 7.47 and 7.34.
Turning to `N#Cc1c(N)sc2c(F)ccc(-c3c(Cl)cc4c(N5CCCC[C@H](C#N)C5)nc(OC[C@@]56CCCN5C[C@H](F)C6)nc4c3F)c12` [Example 69, (3S)-1-(7-(2-amino-3-cyano-7-fluorobenzo[b]thiophen-4-yl)-6-chloro-8-fluoro-2-(((2R,7aS)-2-fluorotetrahydro-1H-pyrrolizin-7a(5H)-yl)methoxy)quinazolin-4-yl)azepane-3-carbonitrile], the negative-log IC50 (pIC50) in assay [2] was 6.86; in assay [3], 7.15.

Source of the values: patent US20250163064A1, “QUINAZOLINE COMPOUNDS AND USES THEREOF AS INHIBITORS OF MUTANT KRAS PROTEINS” (AMGEN INC., priority 2022, published 2025).
